This note sets out measurements from PubChem BioAssay (NCI).

Test systems include SK-MEL-5 melanoma; HCT-116 colon; EKVX NSCLC; UACC-257 melanoma; K-562 leukemia; SF-268 CNS; HT29 colon; NCI-H460 lung; RPMI-8226 leukemia.
What all share (test): NCI tumour cell line growth inhibition, 48 h

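Protocol summary: plate cells (96-well), add compound at 5 concentrations, incubate 48 h, interpolate endpoints linearly. The concentration for 50% growth inhibition is given as GI50. The concentration for full growth arrest is given as TGI.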

For `Oc1cc(C2OCCCO2)cc(O)c1O`, the TGI in the test on SK-MEL-5 melanoma, in the test on HCT-116 colon, in the test on EKVX NSCLC, in the test on UACC-257 melanoma, with K-562 leukemia and with SF-268 CNS was over 100 µM throughout. Besides, the TGI in the test with HT29 colon, with NCI-H460 lung and with RPMI-8226 leukemia was over 100 µM in each case.

Turning to `C1C[OH+]CCNCC[OH+]CC[OH+]CCN1.[Cl-].[Pt+4]`, the GI50 in the test with SK-MEL-5 melanoma, with HCT-116 colon, with UACC-257 melanoma, in the test on K-562 leukemia, with SF-268 CNS and in the test with HT29 colon was over 100 µM in each case. In addition, the GI50 with NCI-H460 lung and in the test on RPMI-8226 leukemia was over 100 µM in each case. Besides, the TGI in the test with SK-MEL-5 melanoma, with HCT-116 colon, in the test with UACC-257 melanoma, with K-562 leukemia, with SF-268 CNS and in the test with HT29 colon was over 100 µM in each case. The TGI with NCI-H460 lung and in the test with RPMI-8226 leukemia was over 100 µM throughout.

Turning to `CN(C)C(=S)/N=c1\ss/c(=N\C(=S)N(C)C)n1-c1ccc(Cl)c(Cl)c1`, the TGI with SK-MEL-5 melanoma, in the test with HCT-116 colon, in the test on EKVX NSCLC, in the test on UACC-257 melanoma, with K-562 leukemia and in the test on SF-268 CNS was over 100 µM each time. Further, the TGI in the test with HT29 colon, in the test on NCI-H460 lung and in the test on RPMI-8226 leukemia was over 100 µM throughout.

In the case of `O=S1OC2(c3ccccc3-c3ccccc32)c2ccccc21` (stereo not given), the TGI in the test with SK-MEL-5 melanoma, in the test on HCT-116 colon, with EKVX NSCLC, with UACC-257 melanoma, in the test on K-562 leukemia and with HT29 colon was over 100 µM in each case. Also, the TGI with NCI-H460 lung and in the test with RPMI-8226 leukemia was over 100 µM throughout.

For the compound `COC(=O)/C(C=O)=C/Sc1ccccc1`, the TGI in the test with SK-MEL-5 melanoma is 85.2 µM; in the test with HCT-116 colon it was over 100 µM; in the test with EKVX NSCLC, over 100 µM; with UACC-257 melanoma, over 100 µM; with K-562 leukemia, over 100 µM; in the test on SF-268 CNS, 33 µM. The TGI is 81.3 µM in the test with HT29 colon, over 100 µM in the test on NCI-H460 lung and over 100 µM in the test on RPMI-8226 leukemia.

As for `CC(=O)c1sc(-c2nc(C)c(C(=O)/C=C\c3ccc(/C=C\C(=O)c4sc(-c5nc(C)c(C(C)=O)s5)nc4C)cc3)s2)nc1C`, the TGI with HCT-116 colon, in the test with EKVX NSCLC, with UACC-257 melanoma, in the test with K-562 leukemia, in the test on SF-268 CNS and in the test on HT29 colon was over 100 µM each time. Also, the TGI with NCI-H460 lung and in the test on RPMI-8226 leukemia was over 100 µM each time.

Regarding `COC(=O)CCC(=O)CC1CC(=O)C2CCCN12` (stereo not given), the TGI in the test with SK-MEL-5 melanoma, in the test on HCT-116 colon, with EKVX NSCLC, in the test on UACC-257 melanoma, in the test on K-562 leukemia and in the test with SF-268 CNS was over 100 µM in each case. In addition, the TGI with HT29 colon, with NCI-H460 lung and in the test on RPMI-8226 leukemia was over 100 µM throughout.

Consider `COC(=O)/C(C)=C/[N+](=O)[O-]`, for which the TGI worked out at 47.3 µM in the test with SK-MEL-5 melanoma; 20.8 µM in the test on HCT-116 colon; 63.6 µM in the test with EKVX NSCLC; 29.3 µM in the test on UACC-257 melanoma; 13.2 µM in the test with K-562 leukemia; 51.6 µM with SF-268 CNS. Moreover, the TGI is 43.2 µM with HT29 colon, 54.8 µM with NCI-H460 lung and 7.36 µM in the test with RPMI-8226 leukemia.

`O=c1[nH]c2cc(Cl)ccc2nc1/C(=N\O)C(O)c1ccc(Cl)cc1Cl` (stereo not given): the TGI in the test with SK-MEL-5 melanoma, in the test on HCT-116 colon, in the test with UACC-257 melanoma, in the test on K-562 leukemia, in the test with SF-268 CNS and with HT29 colon was over 100 µM throughout. For the same compound, the TGI in the test on NCI-H460 lung and in the test with RPMI-8226 leukemia was over 100 µM throughout.

Consider `Nc1nc(CCl)nc(Nc2ccccc2)n1`, for which the TGI with SK-MEL-5 melanoma is 36.5 µM; in the test with HCT-116 colon, 43.5 µM; in the test with UACC-257 melanoma, 71.9 µM; in the test on SF-268 CNS it was 45.2 µM; in the test with HT29 colon it was 27.9 µM; in the test on NCI-H460 lung, 39.3 µM. The compound also showed a TGI with RPMI-8226 leukemia of 19.8 µM.

Turning to `COC(=O)/C(C#N)=C1\CCC(O)N1` (stereo not given), the TGI in the test on HCT-116 colon, in the test with EKVX NSCLC, in the test on UACC-257 melanoma, in the test on K-562 leukemia, in the test on SF-268 CNS and in the test on HT29 colon was over 100 µM each time. Further, the TGI in the test with NCI-H460 lung and with RPMI-8226 leukemia was over 100 µM throughout.

Take `CC1=NN(C(=O)CC(=O)N(C(=O)c2ccccc2Cl)c2ccc(C)cc2)C(=O)C1N=Nc1ccc([N+](=O)[O-])cc1` (stereo not given): the TGI in the test on SK-MEL-5 melanoma was over 100 µM; in the test on HCT-116 colon it was 38.6 µM; with EKVX NSCLC it was over 100 µM; with UACC-257 melanoma it was over 100 µM; in the test on K-562 leukemia, over 80.8 µM; in the test with SF-268 CNS, over 100 µM. Also, the TGI was over 100 µM in the test on HT29 colon, over 76.5 µM with NCI-H460 lung and over 70.3 µM in the test with RPMI-8226 leukemia.

Take `COc1cccc(-n2c3nc(=O)n(C)c(=O)c-3nc3ccccc32)c1`: the TGI in the test on SK-MEL-5 melanoma was 13.8 µM; in the test with HCT-116 colon, over 100 µM; in the test on EKVX NSCLC, 82.1 µM; in the test on UACC-257 melanoma it was 33.8 µM; in the test with K-562 leukemia it was over 100 µM; in the test on SF-268 CNS it was 53.9 µM. For the same compound, the TGI with HT29 colon is 40.8 µM; with NCI-H460 lung, 33.4 µM; in the test on RPMI-8226 leukemia, over 100 µM.

Take `CN1NC(=Nc2ccccc2)Sc2c1cnn(-c1ccccc1)c2=O`: the TGI with HCT-116 colon, with EKVX NSCLC, in the test with UACC-257 melanoma, in the test with K-562 leukemia, in the test with HT29 colon and in the test on NCI-H460 lung was over 100 µM each time. In addition, the TGI with RPMI-8226 leukemia was over 100 µM.
